In patent US20150148377A1, “Quinoline Derivatives” (NOVARTIS AG, priority 2011, published 2015):

What was measured:
PI3K delta = molecular target: T1, PI3K delta (Homo sapiens, UniProt O00329); experiment: Enzymatic PI3K delta isoform inhibition (lipid kinase activity, Kinase-Glo); format: biochemical; conditions: enzymatic assay
T1 construct: for the full-length p110-d subunit are generated and fused by overlapping PCR; His tag (C); made in house; host or cells: baculovirus; Tn5 (Trichoplusia ni) or TiniPro insect cells
T1 sequence (O00329 with tags, fused parts or gaps limits assumed): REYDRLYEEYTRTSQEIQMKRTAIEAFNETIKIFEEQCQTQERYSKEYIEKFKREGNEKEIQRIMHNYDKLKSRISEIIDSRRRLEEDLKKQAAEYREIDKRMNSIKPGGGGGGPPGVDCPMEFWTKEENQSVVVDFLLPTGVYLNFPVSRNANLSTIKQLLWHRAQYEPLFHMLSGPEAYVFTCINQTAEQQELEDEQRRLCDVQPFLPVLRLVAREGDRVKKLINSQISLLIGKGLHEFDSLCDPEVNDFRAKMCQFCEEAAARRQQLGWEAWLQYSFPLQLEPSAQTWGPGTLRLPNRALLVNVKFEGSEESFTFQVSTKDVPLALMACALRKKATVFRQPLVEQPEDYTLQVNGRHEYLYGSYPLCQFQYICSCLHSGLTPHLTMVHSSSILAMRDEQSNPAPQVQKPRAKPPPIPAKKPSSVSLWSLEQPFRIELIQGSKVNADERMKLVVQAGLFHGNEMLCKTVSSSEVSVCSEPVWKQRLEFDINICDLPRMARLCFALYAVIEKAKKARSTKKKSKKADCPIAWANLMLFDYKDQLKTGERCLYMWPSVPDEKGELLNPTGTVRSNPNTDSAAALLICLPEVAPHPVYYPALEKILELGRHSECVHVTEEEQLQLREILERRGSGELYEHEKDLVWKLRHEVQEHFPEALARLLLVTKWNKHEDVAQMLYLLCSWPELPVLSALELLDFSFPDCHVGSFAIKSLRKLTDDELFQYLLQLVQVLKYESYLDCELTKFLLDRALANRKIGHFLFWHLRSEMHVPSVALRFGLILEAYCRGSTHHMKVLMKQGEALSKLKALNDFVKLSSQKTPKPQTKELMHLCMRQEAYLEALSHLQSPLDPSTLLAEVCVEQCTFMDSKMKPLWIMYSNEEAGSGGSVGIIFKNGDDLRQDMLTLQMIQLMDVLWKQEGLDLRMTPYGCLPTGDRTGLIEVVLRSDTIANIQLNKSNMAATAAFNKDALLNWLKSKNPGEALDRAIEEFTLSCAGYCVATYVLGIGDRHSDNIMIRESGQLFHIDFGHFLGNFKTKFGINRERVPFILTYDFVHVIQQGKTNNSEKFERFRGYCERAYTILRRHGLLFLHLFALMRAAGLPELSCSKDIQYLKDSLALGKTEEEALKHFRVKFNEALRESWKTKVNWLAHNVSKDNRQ
Protocol: (§1) In a more preferred assay, the kinase reaction is performed in a final volume of 10 μl per well of a low volume non-binding CORNING, 384 well black plate (Cat. No. #3676). The final concentrations of ATP and phosphatidyl inositol (PI) in the assay are 1 μM and 10 μg/mL, respectively. The reaction is started by the addition of ATP.
(§2) The components of the assay are added per well as follows:
(§3) 50 nl test compounds in 90% DMSO per well, in columns 1-20, 8 concentrations (1/3 and 1/3.33 serial dilution step) in single. • Low control: 50 nl of 90% DMSO in half the wells of columns 23-24 (0.45% in final). • High control: 50 nl of reference compound (e.g. compound of Example 7 in WO 2006/122806) in the other half of columns 23-24 (2.5 μM in final). • Standard: 50 nl of reference compound as just mentioned diluted as the test compounds in columns 21-22. • 20 mL ‘buffer’ are prepared per assay: • 200 μl of 1M TRIS HCl pH7.5 (10 mM in final) • 60 μl of 1M MgCl2 (3 mM in final) • 500 μl of 2M NaCl (50 mM in final) • 100 μl of 10% CHAPS (0.05% in final) • 200 μl of 100 mM DTT (1 mM in final) • 18.94 mL of nanopure water • 10 mL ‘PI’ are prepared per assay: • 200 μl of 1 mg/mL 1-alpha-Phosphatidylinositol (Liver Bovine, Avanti Polar Lipids Cat. No. 840042C MW=909.12) prepared in 3% OctylGlucoside (10 μg/mL in final) • 9.8 mL of ‘buffer’ • 10 mL ‘ATP’ are prepared per assay: • 6.7 μl of 3 mM stock of ATP giving a final concentration of 1 μM per well • 10 mL of ‘buffer’ • 2.5 mL of each PI3K construct are prepared per assay in ‘PI’ with the following final concentration: • 10 nM PI3K alfa EMV B1075 • 25 nM beta EMV BV949 • 10 nM delta EMV BV1060 • 150 nM gamma EMV BV950 • 5 μl of ‘PI/PI3K’ are added per well. • 5 μl ‘ATP’ are added per well to start the reaction. • The plates are then incubated at room temperature for 60 minutes (alfa, beta, delta) or 120 minutes (gamma). • The reaction is terminated by the addition of 10 μl Kinase-Glo (Promega Cat. No. #6714). • The assay plates are read after 10 minutes in Synergy 2 reader (BioTek, Vermont USA) with an integration time of 100 milliseconds and sensitivity set to 191. • Output: The High control is around 60'000 counts and the Low control is 30'000 or lower • This luminescence assay gives a useful Z′ ratio between 0.4 and 0.7
(§4) IC50 is determined by a four parameter curve fitting routine that comes along with “excel fit”. A four parameter logistic equation is used to calculate IC50 values (IDBS XLfit) of the percentage inhibition of each compound at 8 concentrations (usually 10, 3.0, 1.0, 0.3, 0.1, 0.030, 0.010 and 0.003 μM). Alternatively, IC50 values are calculated using idbsXLfit model 204, which is a 4 parameter logistic model.
(§5) Yet alternatively, for an ATP depletion assay, compounds of the formula I to be tested are dissolved in DMSO and directly distributed into a white 384-well plate at 0.5 μl per well. To start the reaction, 10 μl of 10 nM PI3 kinase and 5 μg/mL 1-alpha-phosphatidylinositol (PI) are added into each well followed by 10 μl of 2 μM ATP. The reaction is performed until approx 50% of the ATP is depleted, and then stopped by the addition of 20 μl of Kinase-Glo solution (Promega Corp., Madison, Wis., USA). The stopped reaction is incubated for 5 minutes and the remaining ATP is then detected via luminescence. IC50 values are then determined.

PI3K alpha = molecular target: T2, PI3K alpha (Homo sapiens, UniProt P42336); experiment: Enzymatic PI3K alpha isoform inhibition (lipid kinase activity, Kinase-Glo); format: biochemical; conditions: enzymatic assay
T2 construct: His tag (C); made in house; host or cells: baculovirus; Tn5 (Trichoplusia ni) or TiniPro insect cells
T2 sequence (P42336 with tags, fused parts or gaps limits assumed): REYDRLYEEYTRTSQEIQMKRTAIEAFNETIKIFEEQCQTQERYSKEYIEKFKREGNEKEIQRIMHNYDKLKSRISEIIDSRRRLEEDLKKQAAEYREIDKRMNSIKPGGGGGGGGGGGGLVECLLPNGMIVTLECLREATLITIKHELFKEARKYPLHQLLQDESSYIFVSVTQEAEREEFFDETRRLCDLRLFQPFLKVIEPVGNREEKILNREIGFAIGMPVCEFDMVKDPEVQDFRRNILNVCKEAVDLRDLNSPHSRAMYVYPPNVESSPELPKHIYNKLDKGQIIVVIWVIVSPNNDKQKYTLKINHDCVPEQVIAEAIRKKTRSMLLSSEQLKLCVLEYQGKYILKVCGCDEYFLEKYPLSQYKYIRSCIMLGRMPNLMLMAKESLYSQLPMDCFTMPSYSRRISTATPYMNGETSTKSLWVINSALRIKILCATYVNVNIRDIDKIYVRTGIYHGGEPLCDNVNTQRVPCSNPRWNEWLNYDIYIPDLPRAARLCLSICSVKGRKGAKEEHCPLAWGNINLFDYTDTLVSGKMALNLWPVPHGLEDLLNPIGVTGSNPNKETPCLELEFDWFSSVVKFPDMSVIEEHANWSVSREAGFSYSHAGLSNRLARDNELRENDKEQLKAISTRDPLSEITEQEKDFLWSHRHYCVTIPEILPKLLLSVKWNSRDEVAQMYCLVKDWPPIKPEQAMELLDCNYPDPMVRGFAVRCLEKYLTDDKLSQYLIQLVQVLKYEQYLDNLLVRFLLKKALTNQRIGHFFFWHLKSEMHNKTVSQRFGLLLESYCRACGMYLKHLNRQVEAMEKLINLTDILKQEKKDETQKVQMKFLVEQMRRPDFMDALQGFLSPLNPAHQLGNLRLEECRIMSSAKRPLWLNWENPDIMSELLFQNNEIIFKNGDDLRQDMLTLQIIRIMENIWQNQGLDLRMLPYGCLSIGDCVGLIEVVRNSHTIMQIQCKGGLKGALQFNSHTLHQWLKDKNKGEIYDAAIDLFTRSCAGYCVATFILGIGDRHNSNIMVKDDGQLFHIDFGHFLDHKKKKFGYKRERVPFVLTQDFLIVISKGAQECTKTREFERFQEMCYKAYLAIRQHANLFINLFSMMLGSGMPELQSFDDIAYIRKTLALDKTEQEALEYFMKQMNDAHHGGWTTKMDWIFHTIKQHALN
Protocol: The kinase reaction is performed in a final volume of 50 μl per well of a half area COSTAR, 96 well plate. The final concentrations of ATP and phosphatidyl inositol in the assay are 5 μM and 6 μg/mL, respectively. The reaction is started by the addition of PI3 kinase, e.g. PI3 kinase δ.
as §1, §2, §3, §4, §5

Row | SMILES | IC50 (PI3K delta) [nM] | IC50 (PI3K alpha) [nM]
1 | COc1ncc(-c2ccnc3ccc(O[C@H]4CCN(C(=O)C5CCN(C(C)=O)CC5)C4)cc23)cc1C(F)(F)F [Example A16, 1-(4-{(S)-3-[4-(6-Methoxy-5-trifluoromethyl-pyridin-3-yl)-quinolin-6-yloxy]-pyrrolidine-1-carbonyl}-piperidin-1-yl) ethanone] | 7 | 207
2 | COc1ncc(-c2ccnc3ccc(O[C@H]4CCN(C(=O)C5CCOC5)C4)cc23)cc1C#N (stereo partly drawn) [Example A12, 2-Methoxy-5-{6-[(S)-1-((R,S)-tetrahydro-furan-3-carbonyl)-pyrrolidin-3-yloxy]-quinolin-4-yl}-nicotinonitrile] | 5 | 305
3 | CNc1cc(-c2ccnc3ccc(O[C@H]4CCN(C(=O)C5CCOCC5)C4)cc23)cnc1S(C)(=O)=O [Example A40, {(S)-3-[4-(6-Methanesulfonyl-5-methylamino-pyridin-3-yl)-quinolin-6-yloxy]-pyrrolidin-1-yl}-(tetrahydro-pyran-4-yl)-methanone] | 118 | 2420
4 | CC(=O)N1CC[C@@H](C(=O)N2CC[C@H](Oc3ccc4nccc(-c5cnc(S(C)(=O)=O)c(C)c5)c4c3)C2)C1 [Example A21, 1-((R)-3-{(S)-3-[4-(6-Methanesulfonyl-5-methyl-pyridin-3-yl)-quinolin-6-yloxy]-pyrrolidine-1-carbonyl}-pyrrolidin-1-yl)-ethanone] | 7 | 822
5 | CCC(=O)N1CC[C@H](Oc2ccc3nccc(-c4cnc(N)c(C(F)(F)F)c4)c3c2)C1 [Example A34, 1-{(S)-3-[4-(6-Amino-5-trifluoromethyl-pyridin-3-yl)-quinolin-6-yloxy]-pyrrolidin-1-yl}-propan-1-one] | 27 | 35
6 | CCC(=O)N1CC[C@H](Oc2ccc3nccc(-c4cnc(OC)c(C#N)c4)c3c2)C1 [Example A18, 2-Methoxy-5-[6-((S)-1-propionyl-pyrrolidin-3-yloxy)-quinolin-4-yl]-nicotinonitrile] | 7 | 613
7 | CS(=O)(=O)c1ncc(-c2ccnc3ccc(O[C@H]4CCN(C(=O)C5CCOCC5)C4)cc23)cc1Cl [Example A28, {(S)-3-[4-(5-Chloro-6-methanesulfonyl-pyridin-3-yl)-quinolin-6-yloxy]-pyrrolidin-1-yl}-(tetrahydro-pyran-4-yl)-methanone] | 14 | 1390
8 | COc1ncc(-c2ccnc3ccc(O[C@H]4CCN(C(=O)C5CCS(=O)(=O)CC5)C4)cc23)cc1C#N [Example A22, 5-{6-[(S)-1-(1,1-Dioxo-hexahydro-1lambda*6*-thiopyran-4-carbonyl)-pyrrolidin-3-yloxy]-quinolin-4-yl}-2-methoxy-nicotinonitrile] | 8 | 364

Now from value to compound:

Row | IC50 (PI3K delta) [nM] | IC50 (PI3K alpha) [nM] | SMILES
9 | 20 | 30 | Nc1ncc(-c2ccnc3ccc(O[C@H]4CCN(C(=O)C5CCS(=O)(=O)CC5)C4)cc23)cc1C(F)(F)F [Example A31, {(S)-3-[4-(6-Amino-5-trifluoromethyl-pyridin-3-yl)-quinolin-6-yloxy]-pyrrolidin-1-yl}-(1,1-dioxo-hexahydro-1lambda*6*-thiopyran-4-yl)-methanone]
10 | 29 | 1230 | CC(=O)N1CC[C@@H](C(=O)N2CC[C@H](Oc3ccc4nccc(-c5cnc(OC(F)F)c(C)c5)c4c3)C2)C1 [Example A35, 1-((R)-3-{(S)-3-[4-(6-Difluoromethoxy-5-methyl-pyridin-3-yl)-quinolin-6-yloxy]-pyrrolidine-1-carbonyl}-pyrrolidin-1-yl)-ethanone]
11 | 60 | 1440 | COc1ncc(-c2ccnc3ccc(O[C@H]4CCN(C(=O)C5CCOCC5)C4)c(C)c23)cc1C#N [Example B8, 2-Methoxy-5-{5-methyl-6-[(S)-1-(tetrahydro-pyran-4-carbonyl)-pyrrolidin-3-yloxy]-quinolin-4-yl}-nicotinonitrile]
12 | 21 | 851 | COc1ncc(-c2ccnc3ccc(O[C@H]4CCN(C(=O)c5ccc(=O)n(C)c5)C4)cc23)cc1C [Example A32, 5-{(S)-3-[4-(6-Methoxy-5-methyl-pyridin-3-yl)-quinolin-6-yloxy]-pyrrolidine-1-carbonyl}-1-methyl-1H-pyridin-2-one]
13 | < 3 | 231 | COc1ncc(-c2ccnc3ccc(O[C@H]4CCN(C(=O)c5ccc(=O)[nH]c5)C4)cc23)cc1C [Example A5, 5-{(S)-3-[4-(6-Methoxy-5-methyl-pyridin-3-yl)-quinolin-6-yloxy]-pyrrolidine-1-carbonyl}-1H-pyridin-2-one]
14 | 7 | 543 | CS(=O)(=O)c1ncc(-c2ccnc3ccc(O[C@H]4CCN(C(=O)C5CCOCC5)C4)cc23)cc1CF [Example A20, {(S)-3-[4-(5-Fluoromethyl-6-methanesulfonyl-pyridin-3-yl)-quinolin-6-yloxy]-pyrrolidin-1-yl}-(tetrahydropyran-4-yl)-methanone]
15 | 5 | 257 | COc1ncc(-c2ccnc3ccc(O[C@H]4CCN(C(=O)[C@@H]5CCN(C(C)=O)C5)C4)cc23)cc1C(F)(F)F [Example A11, 1-((R)-3-{(S)-3-[4-(6-Methoxy-5-trifluoromethyl-pyridin-3-yl)-quinolin-6-yloxy]-pyrrolidine-1-carbonyl}-pyrrolidin-1-yl)-ethanone]
16 | 13 | 121 | COc1ncc(-c2ccnc3ccc(O[C@H]4CCN(C(=O)c5cn(C)cn5)C4)cc23)cc1C(F)(F)F [Example A26, {(S)-3-[4-(6-Methoxy-5-trifluoromethyl-pyridin-3-yl)-quinolin-6-yloxy]-pyrrolidin-1-yl}-(1-methyl-1H-imidazol-4-yl)-methanone]
17 | 19.5 | 381 | COc1ncc(-c2ccnc3ccc(O[C@H]4CCN(C(=O)c5cn(C)cn5)C4)cc23)cc1C#N [Example A30, 2-Methoxy-5-{6-[(S)-1-(1-methyl-1H-imidazole-4-carbonyl)-pyrrolidin-3-yloxy]-quinolin-4-yl}-nicotinonitrile]
18 | 4 | 131 | COc1ncc(-c2ccnc3ccc(O[C@H]4CCN(C(=O)C5CCS(=O)(=O)CC5)C4)cc23)cc1C(F)(F)F [Example A8, (1,1-Dioxo-hexahydro-1lambda*6*-thiopyran-4-yl)-{(S)-3-[4-(6-methoxy-5-trifluoromethyl-pyridin-3-yl)-quinolin-6-yloxy]-pyrrolidin-1-yl}-methanone]
19 | 17 | 30 | Nc1ncc(-c2ccnc3ccc(O[C@H]4CCN(C(=O)C5CCOCC5)C4)cc23)cc1C(F)(F)F [Example A29, {(S)-3-[4-(6-Amino-5-trifluoromethyl-pyridin-3-yl)-quinolin-6-yloxy]-pyrrolidin-1-yl}-(tetrahydro-pyran-4-yl)-methanone]
20 | 71 | 189 | COc1ncc(-c2ccnc3ccc(O[C@H]4CCN(C(=O)c5cn(C)cn5)C4)cc23)cc1C [Example A39, {(S)-3-[4-(6-Methoxy-5-methyl-pyridin-3-yl)-quinolin-6-yloxy]-pyrrolidin-1-yl}-(1-methyl-1H-imidazol-4-yl)-methanone]
